Data as given in PMC11172314, “Towards Enhanced Tunability of Aqueous Biphasic Systems: Furthering the Grasp of Fluorinated Ionic Liquids in the Purification of Proteins” (International Journal of Molecular Sciences, 2024).

Target: T1, lysozyme (Lys) (Gallus gallus, UniProt P00698)
T1 construct: Lyophilized lysozyme from chicken egg white, ≥90% purity; purchased Millipore (Darmstadt, Germany); host or cells: chicken egg white (natural source)
Assay: Far-UV CD secondary structure content of lysozyme (K2D deconvolution)
Parameters: species or system chicken; Lys α-helix content / Lys β-sheet content / Lys random coil content / α-helix content / β-sheet content / Random coil content: unit not given here
Conditions: 1.0 mg/ml Lys, 25 °C
Procedure: Circular dichroism (CD) spectroscopy is broadly applied to assess the secondary structure of proteins because different structural elements have characteristic CD spectra. […] For [C4C1Im][CF3SO3] (mere fluoro-containing IL), the structural content was estimated for the concentration range (0.1–200 mM). […] FIL and [ N1112(OH) ][H2PO4] […] No substantial protein structural modification upon the ABS phase-forming component addition was verified.
Circular dichroism (CD) spectra were collected in a 10 mm quartz cuvette and a Chirascan spectropolarimeter (Applied Photophysics, Leatherhead, UK) at room temperature. All CD spectra were recorded in far-UV 190 to 260 nm at scan rates of 50 nm/min, 4 accumulations, and a response time of 3 s. Each CD experiment involved the acquisition and combination of two distinct duplicates. […] Spectral deconvolution was carried out with Dichroweb using the K2D algorithm.

T1 sequence (P00698 19-147): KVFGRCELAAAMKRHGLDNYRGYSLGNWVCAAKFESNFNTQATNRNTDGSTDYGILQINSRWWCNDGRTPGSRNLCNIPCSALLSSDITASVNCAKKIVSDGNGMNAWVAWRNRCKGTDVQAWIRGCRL

For `CCCCn1cc[n+](C)c1.O=S(=O)([O-])C(F)(F)F` [[C4C1Im][CF3SO3]], which “Lys random coil content” value (0.1 mM component) is on record?
The value was 0.56.

And the “Lys α-helix content” value (0.1 mM component)?
The value was 0.28.

And the “Lys β-sheet content” value (0.1 mM component)?
Its value is 0.15.

What about the “Lys random coil content” value (1 mM component) of the same compound?
The value was 0.57.

And the “Lys α-helix content” value (1 mM component)?
Its value is 0.28.

What about the “Lys β-sheet content” value (1 mM component) of the same compound?
The value was 0.15.

What about the “Lys random coil content” value (5 mM component) of the same compound?
Its value is 0.57.

And the “Lys α-helix content” value (5 mM component)?
The value was 0.28.

What about the “Lys β-sheet content” value (5 mM component) of the same compound?
Its value is 0.15.

And the “Lys random coil content” value (25 mM component)?
The value was 0.57.

What about the “Lys α-helix content” value (25 mM component) of the same compound?
The value was 0.28.

And the “Lys β-sheet content” value (25 mM component)?
The value was 0.15.

And the “Lys random coil content” value (55 mM component)?
The value was 0.57.

And the “Lys α-helix content” value (55 mM component)?
The value was 0.28.

And the “Lys β-sheet content” value (55 mM component)?
Its value is 0.15.

And the “Lys random coil content” value (90 mM component)?
Its value is 0.56.

What about the “Lys α-helix content” value (90 mM component) of the same compound?
The value was 0.28.

What about the “Lys β-sheet content” value (90 mM component) of the same compound?
The value was 0.15.

And the “Lys random coil content” value (120 mM component)?
Its value is 0.56.

What about the “Lys α-helix content” value (120 mM component) of the same compound?
The value was 0.28.

And the “Lys β-sheet content” value (120 mM component)?
Its value is 0.15.

And the “Lys random coil content” value (200 mM component)?
The value was 0.55.

What about the “Lys α-helix content” value (200 mM component) of the same compound?
The value was 0.29.

And the “Lys β-sheet content” value (200 mM component)?
Its value is 0.16.
